Assay results published in ChEMBL document CHEMBL1201862, “PubChem BioAssay data set” (2004).
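Cultured in 96-well plates, cells were exposed to test compound for 48 hours across five concentrations. GI50 = concentration required for 50% inhibition of growth.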 Active and inactive are the calls of the source. Rule as the data show it: active = GI50 up to about 1.1 µM and inactive = higher.

Tests used:
Experiment in all cases: growth of human tumour cells (NCI), 48 h
CAKI-1 = tested on: CAKI-1
COLO 205 = tested on: COLO 205
HCT-116 = tested on: HCT-116
HOP-92 = tested on: HOP-92
IGROV-1 = tested on: IGROV-1
LOX IMVI = tested on: LOX IMVI
M14 = tested on: M14
MDA-MB-231 = tested on: MDA-MB-231
MDA-MB-435 = tested on: MDA-MB-435
NCI-H23 = tested on: NCI-H23
OVCAR-3 = tested on: OVCAR-3
OVCAR-4 = tested on: OVCAR-4
OVCAR-5 = tested on: OVCAR-5
PC-3 = tested on: PC-3
RXF 393 = tested on: RXF 393
SK-MEL-2 = tested on: SK-MEL-2
SNB-19 = tested on: SNB-19
SR = tested on: SR
TK-10 = tested on: TK-10
UACC-62 = tested on: UACC-62

Compound | GI50 (CAKI-1) | GI50 (COLO 205) | GI50 (HCT-116) | GI50 (HOP-92) | GI50 (IGROV-1) | GI50 (LOX IMVI) | GI50 (M14) | GI50 (MDA-MB-231) | GI50 (MDA-MB-435) | GI50 (NCI-H23) | GI50 (OVCAR-3) | GI50 (OVCAR-4) | GI50 (OVCAR-5) | GI50 (PC-3) | GI50 (RXF 393) | GI50 (SK-MEL-2) | GI50 (SNB-19) | GI50 (SR) | GI50 (TK-10) | GI50 (UACC-62)
CC1CCc2sc3nc(S)n(C)c(=O)c3c2C1 (stereo not given) | 39.2 µM (inactive) | 67.5 µM (inactive) | 34.5 µM (inactive) | 17.7 µM (inactive) | 37.4 µM (inactive) | 33.7 µM (inactive) | 34.3 µM (inactive) | 36.7 µM (inactive) | 50.5 µM (inactive) | 35.6 µM (inactive) | 22.4 µM (inactive) | 35.2 µM (inactive) | 73.1 µM (inactive) | 25.5 µM (inactive) | 57.9 µM (inactive) | 40.4 µM (inactive) | 33.8 µM (inactive) | 34 µM (inactive) | 63 µM (inactive) | 33.7 µM (inactive)
COc1cc(O)c2c(c1)C(O)C(O)CC1OC1C(=O)/C=C/CC(C)OC2=O (stereo not given) | 1.08 µM (active) | 0.0877 µM (active) | 1.11 µM (active) | 0.354 µM (active) | 2.48 µM (inactive) | 3.88 µM (inactive) | 0.0933 µM (active) | 3.86 µM (inactive) | 0.838 µM (active) | 2.1 µM (inactive) | 2.74 µM (inactive) | 3.27 µM (inactive) | 12.2 µM (inactive) | 11.6 µM (inactive) | 0.982 µM (active) | 2.72 µM (inactive) | 19.8 µM (inactive) | 2.7 µM (inactive) | 2.28 µM (inactive) | 0.0904 µM (active)
C/C(=C\c1csc(C)n1)[C@@H]1C[C@@H]2O[C@]2(C)CCC[C@H](C)[C@H](O)[C@@H](C)C(=O)C(C)(C)[C@@H](O)CC(=O)O1 [PATUPILONE] | < 0.0001 µM (active) | < 0.0001 µM (active) | < 0.0001 µM (active) | < 0.0001 µM (active) | < 0.0001 µM (active) | < 0.0001 µM (active) | < 0.0001 µM (active) | < 0.0001 µM (active) | < 0.0001 µM (active) | < 0.0001 µM (active) | < 0.0001 µM (active) | 0.000458 µM (active) | < 0.0001 µM (active) | < 0.0001 µM (active) | < 0.0001 µM (active) | < 0.0001 µM (active) | < 0.0001 µM (active) | < 0.0001 µM (active) | < 0.0001 µM (active) | < 0.0001 µM (active)
COc1cc2c3c(c1O)-c1c(ccc(OC)c1OC)CC3N(C)CC2 (stereo not given) | > 100 µM (inactive) | > 100 µM (inactive) | > 100 µM (inactive) | > 100 µM (inactive) | > 100 µM (inactive) | > 100 µM (inactive) | > 100 µM (inactive) | > 100 µM (inactive) | > 100 µM (inactive) | > 100 µM (inactive) | > 100 µM (inactive) | > 100 µM (inactive) | > 100 µM (inactive) | > 100 µM (inactive) | > 100 µM (inactive) | > 100 µM (inactive) | > 100 µM (inactive) | > 100 µM (inactive) | > 100 µM (inactive) | > 100 µM (inactive)
COc1ccc2c(-c3ccc(OCCN(C)C)cc3)c(Oc3ccc(Cl)cc3)c(=O)oc2c1 | 11.1 µM (inactive) | 2.23 µM (inactive) | 2.63 µM (inactive) | 5.5 µM (inactive) | 3.37 µM (inactive) | 2.19 µM (inactive) | 1.74 µM (inactive) | 6.79 µM (inactive) | 2.85 µM (inactive) | 14.5 µM (inactive) | 6.17 µM (inactive) | 20 µM (inactive) | 15.6 µM (inactive) | 4.98 µM (inactive) | 4.18 µM (inactive) | 5 µM (inactive) | 8.02 µM (inactive) | 2 µM (inactive) | 7.82 µM (inactive) | 2.75 µM (inactive)
COC(Cc1ccccc1)NC(C)=O (stereo not given) | > 100 µM (inactive) | > 100 µM (inactive) | > 100 µM (inactive) | > 100 µM (inactive) | > 100 µM (inactive) | > 100 µM (inactive) | > 100 µM (inactive) | > 100 µM (inactive) | > 100 µM (inactive) | > 100 µM (inactive) | > 100 µM (inactive) | > 100 µM (inactive) | > 100 µM (inactive) | > 100 µM (inactive) | > 100 µM (inactive) | > 100 µM (inactive) | > 100 µM (inactive) | > 100 µM (inactive) | > 100 µM (inactive) | > 100 µM (inactive)
C#CCOC(=O)C(N)CC(N)=O (stereo not given) | > 100 µM (inactive) | > 100 µM (inactive) | > 100 µM (inactive) | > 100 µM (inactive) | > 100 µM (inactive) | > 100 µM (inactive) | > 100 µM (inactive) | > 100 µM (inactive) | > 100 µM (inactive) | > 100 µM (inactive) | > 100 µM (inactive) | > 100 µM (inactive) | > 100 µM (inactive) | > 100 µM (inactive) | > 100 µM (inactive) | > 100 µM (inactive) | > 100 µM (inactive) | > 100 µM (inactive) | > 100 µM (inactive) | > 100 µM (inactive)
CC(=O)Nc1ccc2c3c(cc(O)c2c1)N(C(=O)CCCCC(=O)Nc1ccc2c4c(cc(O)c2c1)N(C(=O)OC(C)(C)C)CC4CCl)CC3CCl (stereo not given) | 17.4 µM (inactive) | 1.82 µM (inactive) | 2.22 µM (inactive) | 2.7 µM (inactive) | 1.92 µM (inactive) | 2.19 µM (inactive) | 3.27 µM (inactive) | 3.8 µM (inactive) | 1.78 µM (inactive) | 1.05 µM (active) | 2.26 µM (inactive) | 2.52 µM (inactive) | 3.29 µM (inactive) | 3.25 µM (inactive) | 1.53 µM (inactive) | 1.75 µM (inactive) | 2.09 µM (inactive) | 0.137 µM (active) | 10.4 µM (inactive) | 1.54 µM (inactive)
CC1=CC(=O)C2=C(C)CCC3C(C)C(=O)OC3C12 (stereo not given) | > 100 µM (inactive) | > 100 µM (inactive) | > 100 µM (inactive) | > 100 µM (inactive) | > 100 µM (inactive) | > 100 µM (inactive) | > 100 µM (inactive) | > 100 µM (inactive) | > 100 µM (inactive) | > 100 µM (inactive) | > 100 µM (inactive) | > 100 µM (inactive) | > 100 µM (inactive) | > 100 µM (inactive) | > 100 µM (inactive) | > 100 µM (inactive) | > 100 µM (inactive) | 48 µM (inactive) | > 100 µM (inactive) | > 100 µM (inactive)
C[C@H](CCC(=O)O)[C@H]1CC[C@H]2[C@@H]3[C@@H](O)C[C@@H]4C[C@H](O)CC[C@]4(C)[C@H]3CC[C@]12C | > 100 µM (inactive) | > 100 µM (inactive) | 61.7 µM (inactive) | > 100 µM (inactive) | > 100 µM (inactive) | > 100 µM (inactive) | 95.3 µM (inactive) | > 100 µM (inactive) | > 100 µM (inactive) | 65.2 µM (inactive) | 60.8 µM (inactive) | > 100 µM (inactive) | > 100 µM (inactive) | 45.4 µM (inactive) | > 100 µM (inactive) | > 100 µM (inactive) | > 100 µM (inactive) | 47.8 µM (inactive) | 99.3 µM (inactive) | 76.2 µM (inactive)
